Key:
[1] = biological target: T1, ATP receptor (Xenopus sp., UniProt F6VH38)
T1 sequence (F6VH38 whole entry): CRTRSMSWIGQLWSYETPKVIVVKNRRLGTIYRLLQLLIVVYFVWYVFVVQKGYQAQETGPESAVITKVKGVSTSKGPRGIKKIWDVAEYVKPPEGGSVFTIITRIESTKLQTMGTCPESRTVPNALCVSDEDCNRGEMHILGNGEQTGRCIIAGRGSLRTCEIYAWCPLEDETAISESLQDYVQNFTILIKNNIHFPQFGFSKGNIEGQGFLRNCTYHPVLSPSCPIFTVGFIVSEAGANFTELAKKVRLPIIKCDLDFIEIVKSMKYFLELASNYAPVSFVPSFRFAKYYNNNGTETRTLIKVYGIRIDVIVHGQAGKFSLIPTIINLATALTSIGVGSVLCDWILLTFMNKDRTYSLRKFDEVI

[2] = biological target: T2, ATP receptor (Xenopus sp., UniProt Q64F95)
T2 sequence (Q64F95 whole entry): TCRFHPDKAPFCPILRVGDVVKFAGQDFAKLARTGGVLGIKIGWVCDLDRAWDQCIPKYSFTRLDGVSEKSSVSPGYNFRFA

[3] = biological target: T3, P2X purinoceptor (Xenopus sp., UniProt Q9DDP1)
T3 sequence (Q9DDP1 whole entry): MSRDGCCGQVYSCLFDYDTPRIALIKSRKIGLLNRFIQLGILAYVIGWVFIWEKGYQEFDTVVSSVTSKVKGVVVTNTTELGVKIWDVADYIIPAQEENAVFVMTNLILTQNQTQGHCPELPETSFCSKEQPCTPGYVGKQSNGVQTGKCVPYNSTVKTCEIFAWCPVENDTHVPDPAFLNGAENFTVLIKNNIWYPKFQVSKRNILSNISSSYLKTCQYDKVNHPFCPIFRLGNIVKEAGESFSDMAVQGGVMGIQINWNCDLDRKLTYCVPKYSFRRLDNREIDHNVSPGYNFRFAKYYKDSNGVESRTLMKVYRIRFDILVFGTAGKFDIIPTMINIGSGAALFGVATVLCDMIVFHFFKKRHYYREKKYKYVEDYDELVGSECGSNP

O=C(Nc1ccc(C(=O)Nc2ccc(C(=O)Nc3ccc(S(=O)(=O)O)c4cc(S(=O)(=O)O)cc(S(=O)(=O)O)c34)cc2)cc1)Nc1ccc(C(=O)Nc2ccc(C(=O)Nc3ccc(S(=O)(=O)O)c4cc(S(=O)(=O)O)cc(S(=O)(=O)O)c34)cc2)cc1 [CAS_5311315]
Ki [1]: 0.77 µM
Ki [2]: 1.62 µM
Ki [3]: > 10 µM

From BindingDB's records for doi:10.1016/s0028-3908(00)00022-8 (University of Frankfurt, 2000)
